Results reported in US9938259B2, “Therapeutic compositions and related methods of use” (Agios Pharmaceuticals, Inc., priority 2009, dated 2018).

Legend:
PKM2 [1] = biological target: T1, PKM2 (Homo sapiens, UniProt P14618); assay: PKM2 Assay; assay type: biochemical; details: activation of PKM2 enzyme, LDH-coupled, absorbance at 340 nm; read-out: PKM2_AC50
Description: • PKM2 stock enzyme solution was diluted in Reaction Buffer • 2 μL of compound was added into each well first, and then 180 μL of the Reaction Mix was added. • Reaction mixture with compound (without ADP) were incubated for 30 minutes at 4° C. • Plates were re-equilibrated to room temperature prior to adding 20 μL ADP to initiate the reaction. • Reaction progress was measured as changes in absorbance at 340 nm wavelength at room temperature (25° C.) • Reaction Mix: PKM2 (50 ng/well), ADP (0.7 mM), PEP (0.15 mM), NADH (180 μM), LDH (2 units) in Reaction Buffer • Reaction Buffer: 100 mM KCl, 50 mM Tris pH 7.5, 5 mM MgCl2, 1 mM DTT, 0.03% BSA.
Target sequence in this assay (P14618 whole entry): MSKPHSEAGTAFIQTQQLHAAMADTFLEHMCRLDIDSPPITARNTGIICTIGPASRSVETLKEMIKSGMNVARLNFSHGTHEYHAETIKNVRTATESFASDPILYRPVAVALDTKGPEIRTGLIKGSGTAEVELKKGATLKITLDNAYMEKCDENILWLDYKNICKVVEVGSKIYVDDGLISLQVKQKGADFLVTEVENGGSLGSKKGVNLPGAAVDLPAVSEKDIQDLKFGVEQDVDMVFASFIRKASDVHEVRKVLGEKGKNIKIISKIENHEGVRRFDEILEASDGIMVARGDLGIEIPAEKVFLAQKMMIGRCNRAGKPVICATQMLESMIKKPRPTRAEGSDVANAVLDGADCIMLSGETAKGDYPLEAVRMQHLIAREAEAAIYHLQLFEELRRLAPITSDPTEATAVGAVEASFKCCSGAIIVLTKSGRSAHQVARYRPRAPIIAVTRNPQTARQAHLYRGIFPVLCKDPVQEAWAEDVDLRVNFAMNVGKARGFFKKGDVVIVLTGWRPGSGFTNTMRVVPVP

PKM2 [2] = biological target: T1, PKM2; assay: PKM2 Ex-Vivo Assay; assay type: cell-based; design: endogenous in cells; host or cells: A549; details: A549 cells treated with compound 1-4 hrs, pyruvate kinase activity in lysate; read-out: Ex-Vivo_AC50
Description: Described herein is a method to measure the activity of PKM2 activators in living cells and tissue. One of ordinary skill in the art would recognize and understand that this method can be adapted to high throughput format, and can accommodate a variety of cell lines and growth conditions.
In the assay, cells are treated with a compound described herein (i.e., a PKM2 activator). This compound is capable of entering the cell and binding to PKM2, inducing an activated conformation. The excess unbound compound is washed away with PBS, and the cells are lysed by snap-freezing on dry ice, followed by addition of a detergent-containing lysis buffer. The lysate, in which activated PKM2 remains intact, is removed and added to a chemical cocktail including the chemicals necessary to measure pyruvate kinase activity, in an assay that is coupled to the LDHa enzyme. The amount of pyruvate kinase activity that is measured is normalized to the total protein content in the lysate, and related to the concentration of PKM2 activator that was added to the cell. This allows an AC50 (concentration at which PKM2 is activated 50%) value to be derived. The total fold-increase in activity over mock-treated cells can also be calculated, and the “maximum level of activation” can be used to distinguish between compounds that fully activate PKM2 and compounds that can only partially activate PKM2.
• Lysis buffer* • 20 mM Tris-HCl (pH 7.5) • 150 mM NaCl • 1 mM Na2EDTA • 1 mM EGTA • 1% Triton • 2.5 mM sodium pyrophosphate • 1 mM beta-glycerophosphate • 1 mM Na3VO4 • 1 μg/ml leupeptin • 1 mM PMSF** * This lysis buffer (without PMSF) is available from Cell Signaling Technology as a 10× stock (#9803) ** 1 mM PMSF is added fresh from a 100 mM stock solution made up in isopropanol. The stock solution can be stored at 4 degrees indefinitely. Pyruvate Kinase Assay Master Mix (Same for PKM2 Activator Assay):
On the first day (day 1) cells are normally cultured in RPMI-1640 (Lonza #[…].) (with 25 mM Hepes, L-glutamine)/10% FBS. The cells are subsequently trypsinized and plated in RPMI-1640 (Lonza, #12-918F) (no phenol red, supplemented with L-glutamine @300 mg/L (Sigma, #G8540))/10% FBS at the following densities in 96 well plates:
100 uL final volume of media per well.
On the second day (Day 2), the cells should be 70-90% confluent. The cells are then treated with a compound described herein dissolved in media at final assay concentrations in a 96-well assay block (500 uL) (Costar, #3956). The final DMSO concentration is 0.1% (0.5 μL into 500 uL). Compound dilutions in DMSO are prepared so that the final DMSO concentration is constant at all compound concentrations. The media for the assay is RPMI-1640 (no phenol red, with L-glutamine @300 mg/L).
The media is then aspirated carefully from the cells using a multi-channel aspirator. 100 μL of media w/compounds is added onto cells with a multichannel pipette. Each compound concentration is then assayed in triplicate (a duplicate assay is also sufficient).
The cells are treated for 1-4 hrs (this time is determined empirically compared to DMSO reference treatment). During the cell treatment, PBS (containing calcium and magnesium) and lysis buffer is cooled on ice.
The cells are lysed and the pyruvate kinase activity is assayed. The remaining media is aspirated and the cells are washed 2× with 100 uL ice-cold PBS. The PBS is removed, and the cell plate frozen on dry ice for 5 minutes. The cells are lysed in 50 μL cold lysis buffer. Cells are subsequently kept on ice for 5 minutes, and then agitated on a plate shaker for 5 minutes (repeat 3×). Remove 10 μL for protein quantitation (or use OD280 on entire plate).
In a fresh plate, 170 uL of pyruvate kinase assay master mix was added to each well (see end for recipe). 10 uL of cell lysate was then transferred into each well. The assay was initiated upon addition of 20 uL of ADP solution. […]
Target sequence in this assay (P14618 2-531 limits assumed): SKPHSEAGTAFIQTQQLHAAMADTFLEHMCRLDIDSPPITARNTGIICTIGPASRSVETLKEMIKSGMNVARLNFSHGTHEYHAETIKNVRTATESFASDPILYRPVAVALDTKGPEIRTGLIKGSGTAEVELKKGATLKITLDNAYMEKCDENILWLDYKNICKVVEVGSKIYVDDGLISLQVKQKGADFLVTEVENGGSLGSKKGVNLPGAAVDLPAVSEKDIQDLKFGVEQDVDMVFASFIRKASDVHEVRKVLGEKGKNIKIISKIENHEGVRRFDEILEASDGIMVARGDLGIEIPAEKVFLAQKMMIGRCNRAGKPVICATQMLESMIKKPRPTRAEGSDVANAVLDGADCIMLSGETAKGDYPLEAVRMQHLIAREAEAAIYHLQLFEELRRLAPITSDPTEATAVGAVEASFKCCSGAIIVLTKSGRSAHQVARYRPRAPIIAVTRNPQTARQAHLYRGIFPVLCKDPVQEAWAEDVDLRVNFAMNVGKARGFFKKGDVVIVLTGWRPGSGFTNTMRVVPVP

| Structure (SMILES) | AC50 (PKM2 [1]) [nM] | AC50 (PKM2 [2]) [nM] |
| --- | --- | --- |
| O=S(=O)(Nc1ccccc1)c1cccn1-c1ncc(C(F)(F)F)cc1Cl | < 100 | ≤ 1000 |
| O=S(=O)(Nc1cc(F)cc(F)c1)c1cccn1-c1ncc(C(F)(F)F)cc1Cl | < 100 | ≤ 1000 |
| Cc1ccc(NS(=O)(=O)c2cccn2-c2ncc(C(F)(F)F)cc2Cl)cc1C | < 100 | ≤ 1000 |
| Cc1cc(C)cc(NS(=O)(=O)c2cccn2-c2ccnc(Cl)n2)c1 | < 100 | > 1000 |
| Cc1ccc(NS(=O)(=O)c2cncn2-c2ncc(C(F)(F)F)cc2Cl)cc1C | < 100 | ≤ 1000 |
| Cc1cc(C)cc(NS(=O)(=O)c2cnn(-c3ncc(C(F)(F)F)cc3Cl)c2)c1 | < 100 | ≤ 1000 |
| Cc1ccc(NS(=O)(=O)c2cccn2-c2ncc(C(F)(F)F)cc2Cl)cc1 | < 100 | ≤ 1000 |
| O=S(=O)(Nc1ccc(Cl)cc1)c1cccn1-c1ncccc1Cl [drawing 87] |  | ≤ 1000 |
| O=S(=O)(Nc1ccc2ccccc2c1)c1cncn1-c1ncc(C(F)(F)F)cc1Cl [drawing 128] | < 100 | ≤ 1000 |
| Cc1cc(C)cc(NS(=O)(=O)c2cncn2-c2ncc(C(F)(F)F)cc2Cl)c1 |  | ≤ 1000 |
| Cc1cc(C)cc(NS(=O)(=O)c2cccn2-c2ncccn2)c1 |  | ≤ 1000 |
| O=S(=O)(Nc1cccc(Cl)c1)c1cncn1-c1ncc(C(F)(F)F)cc1Cl | 100 to 500 | ≤ 1000 |
| O=S(=O)(Nc1ccc(Cl)cc1)c1cccn1-c1ncc(C(F)(F)F)cc1Cl |  | ≤ 1000 |
| Cc1cc(NS(=O)(=O)c2cncn2-c2ncc(C(F)(F)F)cc2Cl)ccc1Cl | 100 to 500 | ≤ 1000 |
| Cc1cc(NS(=O)(=O)c2cccn2-c2ncc(C(F)(F)F)cc2Cl)ccc1F |  | ≤ 1000 |
| Cc1cc(NS(=O)(=O)c2cncn2-c2ncc(C(F)(F)F)cc2Cl)ccc1F | < 100 | ≤ 1000 |
| Cc1cc(C)cc(NS(=O)(=O)c2cccn2-c2ccc(C(F)(F)F)cn2)c1 | 100 to 500 | ≤ 1000 |
| O=S(=O)(Nc1cccc(Cl)c1)c1cccn1-c1ncc(C(F)(F)F)cc1Cl | < 100 | ≤ 1000 |
| O=S(=O)(Nc1ccc2c(c1)OCO2)c1cccn1-c1ncccc1Cl | < 100 | ≤ 1000 |
| O=S(=O)(Nc1ccc(F)c(Cl)c1)c1cncn1-c1ncc(C(F)(F)F)cc1Cl | 100 to 500 | ≤ 1000 |
| Cc1cc(C)cc(NS(=O)(=O)c2cccn2-c2ncc(C(F)(F)F)cc2Cl)c1 |  | ≤ 1000 |
| O=S(=O)(Nc1ccc(F)c(Cl)c1)c1cccn1-c1ccnc(Cl)n1 | < 100 | > 1000 |
| Cc1cc(NS(=O)(=O)c2cncn2-c2ncccn2)ccc1F [drawing 158] | 100 to 500 | ≤ 1000 |
| Cc1cc(NS(=O)(=O)c2cccn2-c2ncccc2Cl)ccc1F [drawing 161] | 100 to 500 | ≤ 1000 |
| O=S(=O)(Nc1ccc(F)c(Cl)c1)c1cncn1-c1ncccn1 [drawing 160] |  | ≤ 1000 |
| O=S(=O)(Nc1cc(Cl)cc(Cl)c1)c1cncn1-c1ncc(C(F)(F)F)cc1Cl | 1000 to 10000 |  |

| Structure (SMILES) | AC50 (PKM2 [1]) [nM] | AC50 (PKM2 [2]) [nM] |
| --- | --- | --- |
| O=S(=O)(Nc1cccc(-c2ccc(C(F)(F)F)cn2)c1)c1cccn1-c1ncc(C(F)(F)F)cc1Cl | 1000 to 10000 |  |
| O=S(=O)(Nc1ccc(Cl)cc1)c1cncn1-c1cnccn1 | 1000 to 10000 | ≤ 1000 |
| O=S(=O)(Nc1ccc(F)c(Cl)c1)c1cncn1-c1cnccn1 | 100 to 500 |  |
| O=S(=O)(Nc1ccc2c(c1)OCO2)c1cncn1-c1cnccn1 | 100 to 500 |  |
| Cc1cc(C)cc(S(=O)(=O)Nc2ccnn2-c2ncc(C(F)(F)F)cc2Cl)c1 | > 10000 |  |
| O=S(=O)(Nc1ccc(Cl)cc1)c1cncn1-c1nccc(Cl)n1 | 1000 to 10000 |  |
| O=S(=O)(Nc1ccc(F)c(Cl)c1)c1cncn1-c1nccc(Cl)n1 | 1000 to 10000 |  |
| COc1cc(NS(=O)(=O)c2cccn2-c2ccnc(Cl)n2)cc(C(F)(F)F)c1 | 500 to 1000 |  |
| O=S(=O)(Nc1cc(F)c(F)c(F)c1)c1cccn1-c1ncc(C(F)(F)F)cc1Cl | 100 to 500 |  |
| Cc1cc(NS(=O)(=O)c2ccnn2-c2ncc(C(F)(F)F)cc2Cl)ccc1F | < 100 |  |
| O=S(=O)(Nc1cccc(Cl)c1)c1cncn1-c1cccs1 | 1000 to 10000 |  |
| COc1ccc(NS(=O)(=O)c2cnn(-c3ccc(C(F)(F)F)cn3)c2)cc1 | > 10000 |  |
| O=S(=O)(Nc1ccc(Cl)cc1)c1cccn1-c1ncccn1 | 1000 to 10000 |  |
| O=S(=O)(Nc1ccc2c(c1)OCO2)c1cccn1-c1ncc(C(F)(F)F)cc1Cl |  | ≤ 1000 |
| Cc1cccc(NS(=O)(=O)c2cncn2-c2ncc(C(F)(F)F)cc2Cl)c1 |  | ≤ 1000 |
| Cc1cc(NS(=O)(=O)c2cccn2-c2ncc(C(F)(F)F)cc2Cl)ccc1Cl | < 100 | ≤ 1000 |
| O=S(=O)(Nc1ccc2c(c1)OCCO2)c1cncn1-c1ncc(C(F)(F)F)cc1Cl | 1000 to 10000 |  |
| O=S(=O)(Oc1ccc(Cl)cc1)c1cccn1-c1ncc(C(F)(F)F)cc1Cl | 500 to 1000 |  |
| O=S(=O)(Nc1ccc2c(c1)OCO2)c1cccn1-c1nccc(Cl)n1 | 100 to 500 |  |
| CCc1cccc(NS(=O)(=O)c2cccn2-c2ccnc(Cl)n2)c1 | 100 to 500 | > 1000 |
| Cc1cc(C)cc(NS(=O)(=O)c2cncn2-c2ccc(C(F)(F)F)cn2)c1 | 100 to 500 |  |
| CCc1cccc(NS(=O)(=O)c2cncn2-c2ncc(C(F)(F)F)cc2Cl)c1 | 100 to 500 |  |
| Cc1cc(C)cc(NS(=O)(=O)c2cccn2-c2nccc(Cl)n2)c1 | < 100 | > 1000 |
| O=S(=O)(Nc1cc(F)cc(F)c1)c1cncn1-c1nccc(Cl)n1 | 1000 to 10000 |  |
| COc1cc(NS(=O)(=O)c2cncn2-c2ncc(C(F)(F)F)cc2Cl)cc(C(F)(F)F)c1 [drawing 144] | 500 to 1000 |  |
| O=S(=O)(Nc1ccc2ccccc2c1)c1cncn1-c1ncc(C(F)(F)F)cc1Cl [drawing 151] | 100 to 500 | ≤ 1000 |
